Data as given in the supplement of paper PMC10307832.

Tests used:
Experiment in all cases: relative viability (nuclei count vs DMSO), 5 days (fraction); higher = more cells survive
[1] = compound: CC(C)CCN1c2nc(Nc3cc(F)c(O)c(F)c3)ncc2N(C)C(=O)C1C [BI-D1870] + Cc1cc(Nc2cc(N3CCN(C)CC3)nc(Sc3ccc(NC(=O)C4CC4)cc3)n2)n[nH]1 [Tozasertib] (partner 0.1 µM)
Procedure, shortened: (§1)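 Lung cancer cell lines in 1536-well plates were dosed by pin tool the day after seeding, either with one drug alone or with a fixed anchor-drug dose plus five library-drug doses (not always all listed) in √10 steps. After 5 days, cells were fixed and their nuclei stained in one step (final 0.05% Triton X-100, 1% formaldehyde, 1 ug/ml Hoechst), then counted on 4× images. Relative viability is the nuclei count in treated wells divided by that in vehicle wells. Values are medians of duplicate plates.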

[2] = compound: CC(C)CCN1c2nc(Nc3cc(F)c(O)c(F)c3)ncc2N(C)C(=O)C1C [BI-D1870] + CS(=O)(=O)N1CCN(Cc2cc3nc(-c4cccc5[nH]ncc45)nc(N4CCOCC4)c3s2)CC1 [Pictilisib] (partner 1 µM)
Procedure, shortened: as §1

[3] = compound: CC(C)CCN1c2nc(Nc3cc(F)c(O)c(F)c3)ncc2N(C)C(=O)C1C [BI-D1870] + C[C@]1(O)C[C@@H](c2nc(-c3ccc4ccc(-c5ccccc5)nc4c3)c3c(N)nccn32)C1 [Linsitinib] (partner 1 µM)
Procedure, shortened: as §1

[4] = compound: CC(C)CCN1c2nc(Nc3cc(F)c(O)c(F)c3)ncc2N(C)C(=O)C1C [BI-D1870] + COc1cccc2cc(-c3nc([C@H]4CC[C@H](C(=O)O)CC4)n4ncnc(N)c34)[nH]c12 [OSI-027] (partner 0.5 µM)
Procedure, shortened: as §1

| Cell Line | relative viability ([1]; first compound 0.04 µM) | relative viability ([1]; first compound 0.1265 µM) | relative viability ([1]; first compound 0.4 µM) | relative viability ([1]; first compound 1.265 µM) | relative viability ([1]; first compound 4 µM) | relative viability ([2]; first compound 0.04 µM) | relative viability ([2]; first compound 0.1265 µM) | relative viability ([2]; first compound 0.4 µM) | relative viability ([2]; first compound 1.265 µM) | relative viability ([2]; first compound 4 µM) | relative viability ([3]; first compound 0.04 µM) | relative viability ([3]; first compound 0.1265 µM) | relative viability ([3]; first compound 0.4 µM) | relative viability ([3]; first compound 1.265 µM) | relative viability ([3]; first compound 4 µM) | relative viability ([4]; first compound 0.04 µM) | relative viability ([4]; first compound 0.1265 µM) | relative viability ([4]; first compound 0.4 µM) | relative viability ([4]; first compound 1.265 µM) | relative viability ([4]; first compound 4 µM) |
| --- | --- | --- | --- | --- | --- | --- | --- | --- | --- | --- | --- | --- | --- | --- | --- | --- | --- | --- | --- | --- |
| NCI-H1437 | 0.432 | 0.382 | 0.377 | 0.387 | 0.363 | 0.418 | 0.348 | 0.415 | 0.408 | 0.389 | 1.06 | 0.943 | 0.979 | 0.909 | 0.691 | 0.924 | 0.788 | 0.807 | 0.941 | 0.786 |
| NCI-H1651 | 0.9 | 0.487 | 0.784 | 0.647 | 0.344 | 0.549 | 0.423 | 0.566 | 0.516 | 0.551 | 1.09 | 0.907 | 0.962 | 0.922 | 0.752 | 0.738 | 0.608 | 0.668 | 0.753 | 0.63 |
| NCI-H1666 | 0.673 | 0.569 | 0.584 | 0.569 | 0.537 | 0.655 | 0.442 | 0.409 | 0.584 | 0.321 | 0.921 | 0.814 | 0.865 | 0.843 | 0.872 | 0.943 | 0.808 | 0.849 | 0.89 | 0.807 |
| NCI-H1734 | 0.249 | 0.263 | 0.288 | 0.256 | 0.22 | 0.5 | 0.401 | 0.434 | 0.472 | 0.358 | 0.967 | 0.816 | 0.875 | 0.935 | 0.788 | 0.569 | 0.541 | 0.567 | 0.629 | 0.472 |
| NCI-H1755 | 0.59 | 0.551 | 0.518 | 0.513 | 0.531 | 0.474 | 0.408 | 0.469 | 0.431 | 0.35 | 0.982 | 0.975 | 1.04 | 0.967 | 0.941 | 0.705 | 0.714 | 0.651 | 0.847 | 0.683 |
| NCI-H1793 | 0.376 | 0.246 | 0.207 | 0.275 | 0.226 | 0.295 | 0.308 | 0.227 | 0.347 | 0.288 | 0.824 | 0.578 | 0.794 | 0.84 | 0.932 | 0.293 | 0.216 | 0.22 | 0.266 | 0.224 |
| NCI-H1915 | 0.466 | 0.395 | 0.389 | 0.427 | 0.313 | 1.08 | 0.914 | 0.907 | 0.897 | 0.671 | 1.1 | 1.12 | 1.1 | 1.12 | 1.05 | 0.665 | 0.516 | 0.591 | 0.476 | 0.411 |
| NCI-H1944 | 0.293 | 0.233 | 0.25 | 0.262 | 0.235 | 0.395 | 0.294 | 0.332 | 0.377 | 0.345 | 1.34 | 1.18 | 1.07 | 1.38 | 1.08 | 0.514 | 0.376 | 0.366 | 0.475 | 0.426 |
| NCI-H1975 | 0.79 | 0.509 | 0.223 | 0.176 | 0.145 | 0.297 | 0.276 | 0.288 | 0.299 | 0.208 | 1.01 | 0.849 | 0.874 | 0.94 | 0.636 | 0.755 | 0.58 | 0.54 | 0.559 | 0.457 |
| NCI-H1993 | 0.606 | 0.602 | 0.58 | 0.566 | 0.612 | 0.864 | 0.704 | 0.769 | 0.71 | 0.622 | 0.812 | 0.739 | 0.726 | 0.703 | 0.797 | 0.481 | 0.511 | 0.53 | 0.537 | 0.54 |
| NCI-H2009 | 0.826 | 0.723 | 0.639 | 0.516 | 0.321 | 0.949 | 0.77 | 0.719 | 0.633 | 0.318 | 1.29 | 1.13 | 1.23 | 1.13 | 0.881 | 0.742 | 0.571 | 0.615 | 0.559 | 0.255 |
| NCI-H2023 | 0.308 | 0.265 | 0.253 | 0.227 | 0.164 | 0.271 | 0.199 | 0.221 | 0.235 | 0.153 | 0.72 | 0.507 | 0.569 | 0.605 | 0.543 | 0.456 | 0.298 | 0.323 | 0.319 | 0.223 |
| NCI-H2085 | 0.816 | 0.735 | 0.544 | 0.547 | 0.401 | 0.439 | 0.494 | 0.413 | 0.518 | 0.558 | 0.93 | 0.81 | 0.896 | 0.885 | 0.68 | 0.745 | 0.6 | 0.674 | 0.602 | 0.337 |
| NCI-H2087 | 0.217 | 0.212 | 0.203 | 0.215 | 0.142 | 0.963 | 0.867 | 0.86 | 1.03 | 0.665 | 1.09 | 1.02 | 1.17 | 1.01 | 0.699 | 0.733 | 0.516 | 0.58 | 0.638 | 0.392 |
| NCI-H2126 | 0.899 | 0.794 | 0.78 | 0.722 | 0.538 | 0.556 | 0.491 | 0.45 | 0.461 | 0.386 | 0.724 | 0.712 | 0.694 | 0.73 | 0.677 | 0.74 | 0.64 | 0.671 | 0.716 | 0.58 |
| NCI-H2228 | 0.226 | 0.205 | 0.163 | 0.164 | 0.134 | 0.395 | 0.356 | 0.448 | 0.468 | 0.225 | 0.78 | 0.568 | 0.953 | 0.529 | 0.388 | 0.659 | 0.533 | 0.654 | 0.515 | 0.257 |
